Common to all, as to experiment: NCI anticancer screen, dose series, 48 h
The test system of assay [1] is ACHN renal.
Assay [2] has as its system DU-145 prostate.
For assay [3], the system named is HOP-92 NSCLC.
Assay [4] concerns IGROV1 ovarian.
The test system of assay [5] is KM12 colon.
The test system of assay [6] is NCI-H226 lung.
Assay [7] concerns NCI-H23 lung.
Assay [8] deals with PC-3 prostate.
Assay [9] has as its system RPMI-8226 leukemia.
Assay [10] deals with SNB-75 CNS.

Structures are written as SMILES.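 Tested at 5 concentrations; 48 h exposure; 96-well plates; endpoints linearly interpolated, else capped at highest concentration. GI50 is the concentration that inhibits growth by half. The concentration for full growth arrest is given as TGI.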

The values below come from PubChem BioAssay (NCI).

Consider `Nc1nc(Cl)c(N)c(NCC2(CO)CC(OCc3ccccc3)C2)n1` (configuration not stated), for which the TGI in assay [1], in [2], in assay [3], in assay [4], in assay [5] and in assay [6] was over 100 µM throughout. In addition, the TGI in assay [7], in [8], in [9] and in assay [10] was over 100 µM throughout.

Regarding `O=C(Nc1cccc(-n2ccc3c(NC(=O)c4ccccc4)nccc32)c1)Nc1cc(C(F)(F)F)cc(C(F)(F)F)c1`, the GI50 was 1.48 µM in assay [1]; 1.68 µM in assay [2]; 0.853 µM in [3]; 2.46 µM in assay [4]; 1.53 µM in assay [5]; 1.66 µM in [6]. The GI50 in assay [7] was 1.96 µM; in [8], 1.58 µM; in assay [9], 1.13 µM; in [10], 1.09 µM. Besides, the TGI in assay [1] is 7.61 µM; in [2], 7.97 µM; in assay [3], 3.95 µM; in [4] it was over 50 µM; in assay [5], 4.7 µM; in [6], 16.4 µM. Moreover, the TGI was over 50 µM in [7], over 50 µM in [8], 2.85 µM in assay [9] and 3.89 µM in assay [10].

For `CN(CCn1cnc2c1c(=O)n(C)c(=O)n2C)C1CCCCC1`, the TGI in assay [1], in [2], in assay [3], in assay [4], in [5] and in [6] was over 100 µM in each case. In addition, the TGI in assay [7], in assay [8], in assay [9] and in [10] was over 100 µM throughout.

In the case of `CC[C@]12C=CCN3CC[C@@]4(c5cc(Br)c(OC)cc5N(C)[C@H]4[C@@](O)(C(=O)NN)[C@@H]1O)[C@@H]32`, the TGI in assay [1], in [2], in assay [3], in [4], in [5] and in assay [6] was over 100 µM in each case. The TGI is over 100 µM in assay [7], over 100 µM in [8] and 43.6 µM in [10].

In the case of `CCN(CC)CC1CCCCN1CC(=O)N1c2ccccc2NC(=O)CC1C` (configuration not stated), the TGI in [1], in assay [2], in assay [3], in assay [4], in assay [5] and in [6] was over 100 µM in each case. Moreover, the TGI in assay [7], in assay [8] and in assay [9] was over 100 µM in each case.

Regarding `O=[N+]([O-])C1CC/C(=N/O)c2nonc21` (configuration not stated), the TGI in [1], in assay [2], in assay [3], in [4], in [5] and in [6] was over 10 µM throughout. The TGI in assay [7], in assay [8] and in assay [9] was over 10 µM throughout.

Regarding `O=C(/C=C/c1ccc(O)cc1)c1ccc2c(c1)OCO2`, the TGI in [1] is 52.8 µM; in assay [2], 76.7 µM; in [3] it was 58.8 µM; in [4], 28.9 µM; in assay [5], 33.7 µM; in assay [6], 34.1 µM. For the same molecule, the TGI in assay [7] is 39.2 µM; in assay [8], 62.2 µM; in assay [10], 50.3 µM.

As to `COC(=O)[C@@H]1[C@@H](c2cccc(Cl)c2)[C@H](C(=O)OC)C2(C[C@@]1(C)O)NCCS2` (some centres not stated), the TGI in [1], in [2], in assay [3], in [4], in assay [5] and in assay [6] was over 100 µM in each case. In addition, the TGI in [7], in assay [8] and in [10] was over 100 µM in each case.

Turning to `Oc1ccc(-c2nc(-c3cccnc3)c(-c3ccc(Cl)cc3)[nH]2)cc1O`, the TGI was found to be 26.1 µM in assay [1]; 90.8 µM in [2]; 18.6 µM in [4]; 21.2 µM in assay [5]; 37.1 µM in assay [6]; 23.9 µM in assay [7]. The TGI in assay [8] is 21.2 µM; in assay [9] it was over 100 µM; in assay [10] it was 20.2 µM.

`Cc1nc(C)c(C(=O)NNC(N)=S)cc1C(=O)NNC(N)=S`: the TGI in [1], in assay [2], in assay [3], in assay [4], in assay [5] and in assay [6] was over 100 µM each time. In addition, the TGI in [7], in [8] and in [9] was over 100 µM throughout.

Take `O=C(c1ccccc1)N1CCN(C(=S)N(C(=O)c2ccccc2)c2ccccc2)C1=S`: the TGI worked out at 7.2 µM in [1]; 10.6 µM in assay [2]; 20 µM in assay [3]; 12.6 µM in assay [4]; 20.5 µM in [5]; 32 µM in [6]. Besides, the values for the TGI in assay [7], in assay [8] and in assay [10] were 11.6 µM, 20.5 µM and 6.56 µM, respectively.
